# Test results: the supplement of paper PMC10307832
# What was measured:
# Test in all cases: relative viability (nuclei count vs DMSO), 5 days (fraction); higher = more cells survive
# RAF265 + Alpelisib = compound: Cn1c(Nc2ccc(C(F)(F)F)cc2)nc2cc(Oc3ccnc(-c4ncc(C(F)(F)F)[nH]4)c3)ccc21 [RAF265] + Cc1nc(NC(=O)N2CCC[C@H]2C(N)=O)sc1-c1ccnc(C(C)(C)C(F)(F)F)c1 [Alpelisib] (partner 2 µM)
# Procedure, shortened: (§1)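 Lung cancer cell lines were pin-tool dosed in 1536-well plates on the day after seeding, with either a lone drug or a fixed anchor-drug dose plus five library-drug doses (not always all listed) in √10 steps. Nuclei were counted on 4× images after 5 days. Relative viability is the ratio of treated-well to vehicle-well nuclei counts, with each value a median of duplicate plates.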
# RAF265 + Crizotinib = compound: Cn1c(Nc2ccc(C(F)(F)F)cc2)nc2cc(Oc3ccnc(-c4ncc(C(F)(F)F)[nH]4)c3)ccc21 [RAF265] + C[C@@H](Oc1cc(-c2cnn(C3CCNCC3)c2)cnc1N)c1c(Cl)ccc(F)c1Cl [Crizotinib] (partner 1 µM)
# Procedure, shortened: as §1
# RAF265 + Foretinib = compound: Cn1c(Nc2ccc(C(F)(F)F)cc2)nc2cc(Oc3ccnc(-c4ncc(C(F)(F)F)[nH]4)c3)ccc21 [RAF265] + COc1cc2c(Oc3ccc(NC(=O)C4(C(=O)Nc5ccc(F)cc5)CC4)cc3F)ccnc2cc1OCCCN1CCOCC1 [Foretinib] (partner 0.25 µM)
# Procedure, shortened: as §1
# RAF265 + OSI-027 = compound: Cn1c(Nc2ccc(C(F)(F)F)cc2)nc2cc(Oc3ccnc(-c4ncc(C(F)(F)F)[nH]4)c3)ccc21 [RAF265] + COc1cccc2cc(-c3nc([C@H]4CC[C@H](C(=O)O)CC4)n4ncnc(N)c34)[nH]c12 [OSI-027] (partner 0.5 µM)
# Procedure, shortened: as §1
Cell Line,relative viability (RAF265 + Alpelisib; first compound 0.01 µM),relative viability (RAF265 + Alpelisib; first compound 0.03162 µM),relative viability (RAF265 + Alpelisib; first compound 0.1 µM),relative viability (RAF265 + Alpelisib; first compound 0.3162 µM),relative viability (RAF265 + Alpelisib; first compound 1 µM),relative viability (RAF265 + Crizotinib; first compound 0.01 µM),relative viability (RAF265 + Crizotinib; first compound 0.03162 µM),relative viability (RAF265 + Crizotinib; first compound 0.1 µM),relative viability (RAF265 + Crizotinib; first compound 0.3162 µM),relative viability (RAF265 + Crizotinib; first compound 1 µM),relative viability (RAF265 + Foretinib; first compound 0.01 µM),relative viability (RAF265 + Foretinib; first compound 0.03162 µM),relative viability (RAF265 + Foretinib; first compound 0.1 µM),relative viability (RAF265 + Foretinib; first compound 1 µM),relative viability (RAF265 + OSI-027; first compound 0.01 µM),relative viability (RAF265 + OSI-027; first compound 0.03162 µM),relative viability (RAF265 + OSI-027; first compound 0.1 µM),relative viability (RAF265 + OSI-027; first compound 0.3162 µM),relative viability (RAF265 + OSI-027; first compound 1 µM),relative viability (RAF265 + Foretinib; first compound 0.3162 µM)
NCI-H2023,0.554,0.625,0.721,0.639,0.508,0.624,0.58,0.88,0.668,0.478,0.86,0.875,0.893,0.553,0.387,0.358,0.33,0.252,0.318,–
NCI-H2085,1,0.961,0.85,1.03,0.891,0.696,0.886,0.858,1.05,0.806,0.859,0.929,0.957,1.06,0.948,0.68,0.841,0.552,0.83,0.987
NCI-H2087,0.861,0.89,0.909,0.709,0.677,0.71,0.7,0.818,0.637,0.692,0.967,1.1,0.938,0.663,0.653,0.426,0.426,0.193,0.334,0.797
NCI-H2126,0.75,0.751,0.731,0.663,0.519,1.02,1.04,1.03,0.96,0.754,1.16,1.2,1.17,0.668,0.77,0.724,0.718,0.582,0.437,1.11
NCI-H2170,0.773,0.643,0.671,0.524,0.641,1.22,1.08,1.09,0.784,0.771,1.05,0.971,0.978,0.88,0.74,0.512,0.623,0.333,0.452,0.805
NCI-H2228,0.791,0.718,0.436,0.299,0.29,0.382,0.369,0.333,0.356,0.321,0.893,0.819,0.781,0.386,0.499,0.476,0.344,0.184,0.121,0.542
NCI-H2347,1.18,0.97,0.933,0.612,0.488,0.699,0.664,0.504,0.551,0.287,0.93,0.971,0.81,0.803,0.418,0.341,0.44,0.35,0.278,0.592
